Data published in patent publication US20080274959A1, “Actinomadura Chromoprotein, Apoprotein and Gene Cluster” (Wyeth, priority 2004, published 2008).

Legend:
HCT116 cells = experiment: Uptake of FITC-tagged protein, fluorescent microscopy / flow cytometry; assay type: cell-based, human
Description: To determine the mechanism by which the chromoprotein enters cells and exerts its biological activity, the chromoprotein was labeled with a fluorescent tag (FITC) using EZ-Label fluorescent labeling kit (Pierce Biotechnology), according to the manufacturer's recommendation. […] Uptake of labeled material by HCT116 colon carcinoma cells was studied by fluorescent microscopy.
To determine whether an intact complex of chromophore and apoprotein is required for cellular and nuclear entry, the chromoprotein and apoprotein were labeled with FITC. Uptake of labeled material was studied by fluorescent microscopy.
To determine whether the entry of chromoprotein into cells is mediated by a saturable (e.g. cell surface receptor-dependent) process, HCT116 cells were incubated with FITC-labeled chromoprotein (FIG. 28, right panel) or apoprotein (FIG. 28, left panel) in the absence or presence of 10-fold excess of unlabeled reagent (unlabelled chromoprotein or apoprotein, respectively). Cells were analysed by fluorescent microscopy (left) or flow cytometry (right). […] Numbers in the histograms are mean channel numbers (FITC fluorescence).
Other means by which a protein complex can enter cells is pinocytosis, where caveolae in the surface of the cell pinch off to form pinosomes that are free within the cytoplasm of the cell. Since pinocytosis is an energy-dependent process that requires a functional tubulin cytoskeletal network, we examined the effect of sodium azide, an energy uncoupling agent and nocodazole, an agent which disrupts the tubulin cytoskeleton on cellular uptake. HCT116 cells were treated with FITC-labeled apoprotein in the absence or presence of sodium azide or nocodazole.

histone H1 in HeLa cells = experiment: Digestion of histone H1 in HeLa cells, immunoblot; assay type: cell-based; settings: overnight at 37° C., anti-histone H1 immunoblot
Description: To study whether the digestion of histones by the chromoprotein occurs in intact cells, HeLa cells were incubated with compounds overnight at 37° C. Cell lysates were analysed by SDS-PAGE and protein immunoblotting using anti-histone H1 antibodies (Santa Cruz Biotechnologies). […] This activity can contribute to antitumor effects by digesting histones in chromatin, making the DNA more accessible for cleavage. This appears to be a unique activity of the chromoprotein enediynes.

KB = experiment: IC50 against P-GP expressing cells: KB; assay type: cell-based; settings: P-GP level −, mean of two independent experiments
Description: (§1) Human PGP (MDR1) is an ATP-dependent efflux pump which is capable of transporting many drugs across cell membranes. High level expression of this protein has been linked to multiple drug resistance of tumors. […] The protein component of the chromoprotein probably protects the chromophore from drug efflux mediated by MDR1, and may be responsible for the beneficial antitumor effects in colon cell lines which often express MDR1.

Histone H1 = experiment: Digestion of histone H1, SDS-PAGE; assay type: biochemical; settings: 50 mM Tris-Cl, pH 7.5 overnight at 37° C.
Description: Histone H1 was incubated with various concentrations of the chromoprotein in 50 mM Tris-Cl, pH 7.5 overnight at 37° C. (FIG. 20) Digestions of histone were assessed by SDS-polyacrylamide gel electrophoresis (SDS-PAGE), followed by staining of the gel with GelCode Blue (Pierce Biotechnology, Inc, Rockford, Ill.).

KB-8-5 = experiment: IC50 against P-GP expressing cells: KB-8-5; assay type: cell-based; settings: KB-8-5, P-GP level +; mean of two independent experiments
Description: as §1

KB-V-1 = experiment: IC50 against P-GP expressing cells: KB-V-1; assay type: cell-based; settings: KB-V-1, P-GP level +++; mean of two independent experiments
Description: as §1

Human PGP (MDR1) = biological target: T1, Human PGP (MDR1) (Homo sapiens, UniProt P08183); experiment: Transport by P-GP (MDR-1); assay type: cell-based; settings: judged from IC50 in KB, KB-8-5, KB-V-1 cells
T1 construct: endogenous in cells; parental KB is P-GP negative
T1 sequence (P08183 whole entry): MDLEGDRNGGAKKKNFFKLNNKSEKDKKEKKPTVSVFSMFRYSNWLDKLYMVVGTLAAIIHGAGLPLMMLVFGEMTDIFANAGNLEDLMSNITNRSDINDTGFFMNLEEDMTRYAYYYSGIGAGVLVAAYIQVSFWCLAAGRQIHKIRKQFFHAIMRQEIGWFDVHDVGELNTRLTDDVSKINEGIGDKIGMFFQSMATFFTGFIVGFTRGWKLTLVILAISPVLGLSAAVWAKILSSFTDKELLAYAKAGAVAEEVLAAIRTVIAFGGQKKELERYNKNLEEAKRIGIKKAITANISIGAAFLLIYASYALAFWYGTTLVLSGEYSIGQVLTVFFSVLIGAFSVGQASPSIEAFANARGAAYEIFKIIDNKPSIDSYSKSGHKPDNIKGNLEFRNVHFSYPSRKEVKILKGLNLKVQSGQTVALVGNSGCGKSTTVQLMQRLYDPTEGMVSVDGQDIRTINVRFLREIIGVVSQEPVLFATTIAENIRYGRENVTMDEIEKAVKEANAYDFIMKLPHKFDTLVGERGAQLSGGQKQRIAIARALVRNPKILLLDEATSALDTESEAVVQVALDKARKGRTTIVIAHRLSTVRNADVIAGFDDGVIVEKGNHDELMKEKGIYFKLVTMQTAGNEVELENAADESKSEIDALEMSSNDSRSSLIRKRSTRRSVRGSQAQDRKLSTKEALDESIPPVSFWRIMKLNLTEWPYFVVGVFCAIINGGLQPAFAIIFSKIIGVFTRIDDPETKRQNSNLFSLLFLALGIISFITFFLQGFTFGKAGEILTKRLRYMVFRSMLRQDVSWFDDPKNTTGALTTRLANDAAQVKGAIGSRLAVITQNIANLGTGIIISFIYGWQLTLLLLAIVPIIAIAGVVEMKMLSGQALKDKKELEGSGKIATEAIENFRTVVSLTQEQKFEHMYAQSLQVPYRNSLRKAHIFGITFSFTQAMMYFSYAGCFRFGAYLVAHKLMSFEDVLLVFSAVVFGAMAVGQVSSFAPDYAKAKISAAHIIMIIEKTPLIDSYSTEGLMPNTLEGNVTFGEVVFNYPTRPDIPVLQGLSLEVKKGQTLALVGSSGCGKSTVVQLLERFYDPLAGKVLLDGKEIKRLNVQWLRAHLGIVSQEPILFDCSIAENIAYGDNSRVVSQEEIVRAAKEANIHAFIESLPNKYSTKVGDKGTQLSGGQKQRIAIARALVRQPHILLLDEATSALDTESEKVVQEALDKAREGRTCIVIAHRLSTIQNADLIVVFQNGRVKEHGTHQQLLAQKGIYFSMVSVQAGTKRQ
Description: as §1

[1] = tested on: human tumor cell line panel; experiment: In vitro anti-tumor activity, human tumor cell line panel; assay type: cell-based; settings: apoprotein alone

## COC(=O)Nc1nc2ccc(C(=O)c3cccs3)cc2[nH]1 [nocodazole, reference compound]
HCT116 cells; HCT116 cells
  effect on uptake of FITC-labeled apoprotein: inhibited uptake of label

## bleomycin
Histone H1 in HeLa cells
  histone H1 in cells after incubation: No effect

## calicheamicin [reference compound]
KB
  IC50: 0.003 µg/mL
Histone H1
  digestion of histone H1: did not cleave histone H1
Histone H1 in HeLa cells
  histone H1 in cells after incubation: No effect
KB-8-5
  IC50: 0.021 µg/mL
KB-V-1
  IC50: >1 µg/mL
Human PGP (MDR1)
  MDR1 substrate: good substrate for MDR1

B1: apoprotein: protein component of the 21G792 chromoprotein without chromophore, SEQ ID NO:150, 12.92409 kDa by MALDI-MS (protein)
chain: DTVTVNYDCVGYPSDIAVTIDAPATAGVGDTATFEVSSVVTTGAPQDLPAGEVVTDMAIVVGGAQSGTITASGLTNEATPAGQPVNMVGGEAQITFTSAGSVTFTPSTTTQVDNGAQCTVVGEAPVGATTVVS
modifications: Actinomadura sp. 21G792
Histone H1
  digestion of histone H1: no activity
HCT116 cells; FITC-labeled
  uptake, apoprotein compared with chromoprotein: similar
HCT116 cells; FITC-labeled, microscopy or flow cytometry
  competition of uptake by 10-fold excess of unlabeled reagent: No competition of label
[1]
  in vitro anti-tumor activity: inactive
